Reference: PubChem BioAssay (NCI)
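Values below derive from 48-hour exposures of cells grown in 96-well plates, with endpoints linearly interpolated between the two concentrations bracketing the appropriate inhibition level. Abbreviation: GI50, concentration required for 50% inhibition of growth. TGI: concentration producing complete growth inhibition.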

Tests used:
Test in all cases: DTP human tumour cell line panel, 48 h
786-0 renal = test system: 786-0 renal
A498 renal = test system: A498 renal
A549 NSCLC = test system: A549 NSCLC
ACHN renal = test system: ACHN renal
BT-549 breast = test system: BT-549 breast
CAKI-1 renal = test system: CAKI-1 renal
CCRF-CEM leukemia = test system: CCRF-CEM leukemia
COLO 205 colon = test system: COLO 205 colon
DU-145 prostate = test system: DU-145 prostate
EKVX NSCLC = test system: EKVX NSCLC
HCC-2998 colon = test system: HCC-2998 colon
HCT-116 colon = test system: HCT-116 colon
HCT-15 colon = test system: HCT-15 colon
HL-60(TB) leukemia = test system: HL-60(TB) leukemia
HOP-62 NSCLC = test system: HOP-62 NSCLC
HOP-92 NSCLC = test system: HOP-92 NSCLC
HS 578T breast = test system: HS 578T breast
HT29 colon = test system: HT29 colon
IGROV1 ovarian = test system: IGROV1 ovarian
K-562 leukemia = test system: K-562 leukemia
KM12 colon = test system: KM12 colon
LOX IMVI melanoma = test system: LOX IMVI melanoma
MALME-3M melanoma = test system: MALME-3M melanoma
MCF7 breast = test system: MCF7 breast
MDA-MB-231 breast = test system: MDA-MB-231 breast
MDA-MB-435 = test system: MDA-MB-435
MOLT-4 leukemia = test system: MOLT-4 leukemia
NCI-H226 lung = test system: NCI-H226 lung
NCI-H23 lung = test system: NCI-H23 lung
NCI-H460 lung = test system: NCI-H460 lung
NCI-H522 lung = test system: NCI-H522 lung
NCI/ADR-RES ovarian = test system: NCI/ADR-RES ovarian
OVCAR-3 ovarian = test system: OVCAR-3 ovarian
OVCAR-4 ovarian = test system: OVCAR-4 ovarian
OVCAR-5 ovarian = test system: OVCAR-5 ovarian
PC-3 prostate = test system: PC-3 prostate
RPMI-8226 leukemia = test system: RPMI-8226 leukemia
RXF 393 renal = test system: RXF 393 renal
SF-268 CNS = test system: SF-268 CNS
SF-295 CNS = test system: SF-295 CNS
SF-539 CNS = test system: SF-539 CNS
SK-MEL-2 melanoma = test system: SK-MEL-2 melanoma
SK-MEL-28 melanoma = test system: SK-MEL-28 melanoma
SK-MEL-5 melanoma = test system: SK-MEL-5 melanoma
SK-OV-3 ovarian = test system: SK-OV-3 ovarian
SN12C renal = test system: SN12C renal
SNB-19 CNS = test system: SNB-19 CNS
SNB-75 CNS = test system: SNB-75 CNS
SR leukemia = test system: SR leukemia
SW-620 colon = test system: SW-620 colon
T-47D breast = test system: T-47D breast
TK-10 renal = test system: TK-10 renal
U251 CNS = test system: U251 CNS
UACC-257 melanoma = test system: UACC-257 melanoma
UACC-62 melanoma = test system: UACC-62 melanoma
UO-31 renal = test system: UO-31 renal

CCOC(=O)c1c(NC(=O)COc2cccc3cccnc23)sc(C(=O)N(C)C)c1C
GI50 (786-0 renal): 20.7 µM
TGI (786-0 renal): 79.7 µM
GI50 (A498 renal): 26.6 µM
TGI (A498 renal): 66.7 µM
GI50 (A549 NSCLC): 18.5 µM
TGI (A549 NSCLC): 46.2 µM
GI50 (ACHN renal): 24.1 µM
TGI (ACHN renal): 75.5 µM
GI50 (BT-549 breast): 14.1 µM
TGI (BT-549 breast): 32.4 µM
GI50 (CAKI-1 renal): 20.7 µM
TGI (CAKI-1 renal): 77.6 µM
GI50 (CCRF-CEM leukemia): 14.1 µM
TGI (CCRF-CEM leukemia): 82.3 µM
GI50 (COLO 205 colon): 17.4 µM
TGI (COLO 205 colon): 55.5 µM
GI50 (DU-145 prostate): 18.5 µM
TGI (DU-145 prostate): 39.2 µM
GI50 (EKVX NSCLC): 23 µM
TGI (EKVX NSCLC): 61 µM
GI50 (HCC-2998 colon): 17.2 µM
TGI (HCC-2998 colon): 35.2 µM
GI50 (HCT-116 colon): 14.6 µM
TGI (HCT-116 colon): 45.6 µM
GI50 (HCT-15 colon): 18.5 µM
TGI (HCT-15 colon): 48.5 µM
GI50 (HL-60(TB) leukemia): 18.1 µM
TGI (HL-60(TB) leukemia): 39.9 µM
GI50 (HOP-62 NSCLC): 19.6 µM
TGI (HOP-62 NSCLC): 58 µM
GI50 (HOP-92 NSCLC): 14.2 µM
TGI (HOP-92 NSCLC): 55.1 µM
GI50 (HS 578T breast): 15.5 µM
TGI (HS 578T breast): 44.6 µM
GI50 (HT29 colon): 25.4 µM
TGI (HT29 colon): 61.6 µM
GI50 (IGROV1 ovarian): 16.7 µM
TGI (IGROV1 ovarian): 49.2 µM
GI50 (K-562 leukemia): 19.7 µM
TGI (K-562 leukemia): 48.9 µM
GI50 (KM12 colon): 15.7 µM
TGI (KM12 colon): 35.3 µM
GI50 (LOX IMVI melanoma): 22 µM
TGI (LOX IMVI melanoma): 55.1 µM
GI50 (MALME-3M melanoma): 20.1 µM
TGI (MALME-3M melanoma): 46.6 µM
GI50 (MCF7 breast): 19 µM
TGI (MCF7 breast): 42.5 µM
GI50 (MDA-MB-231 breast): 23.7 µM
TGI (MDA-MB-231 breast): > 100 µM
GI50 (MDA-MB-435): 16.1 µM
TGI (MDA-MB-435): 31.5 µM
GI50 (MOLT-4 leukemia): 16.4 µM
TGI (MOLT-4 leukemia): 44.3 µM
GI50 (NCI-H226 lung): 17.9 µM
TGI (NCI-H226 lung): 50.1 µM
GI50 (NCI-H23 lung): 14.7 µM
TGI (NCI-H23 lung): 36.5 µM
GI50 (NCI-H460 lung): 13.6 µM
TGI (NCI-H460 lung): 33.3 µM
GI50 (NCI-H522 lung): 13.8 µM
TGI (NCI-H522 lung): 30.3 µM
GI50 (NCI/ADR-RES ovarian): 6 µM
TGI (NCI/ADR-RES ovarian): 34.3 µM
GI50 (OVCAR-3 ovarian): 20.8 µM
TGI (OVCAR-3 ovarian): 69.8 µM
GI50 (OVCAR-4 ovarian): 22.1 µM
TGI (OVCAR-4 ovarian): 65.8 µM
GI50 (OVCAR-5 ovarian): 17.4 µM
TGI (OVCAR-5 ovarian): 37.3 µM
GI50 (PC-3 prostate): 17.5 µM
TGI (PC-3 prostate): 63 µM
GI50 (RPMI-8226 leukemia): 7.93 µM
TGI (RPMI-8226 leukemia): 36.8 µM
GI50 (RXF 393 renal): 13 µM
TGI (RXF 393 renal): 34.2 µM
GI50 (SF-268 CNS): 22.4 µM
TGI (SF-268 CNS): 82 µM
GI50 (SF-295 CNS): 13.5 µM
TGI (SF-295 CNS): 30.9 µM
GI50 (SF-539 CNS): 21.9 µM
TGI (SF-539 CNS): 48 µM
GI50 (SK-MEL-2 melanoma): 18.5 µM
TGI (SK-MEL-2 melanoma): 45.5 µM
GI50 (SK-MEL-28 melanoma): 16.9 µM
TGI (SK-MEL-28 melanoma): 33.4 µM
GI50 (SK-MEL-5 melanoma): 8.8 µM
TGI (SK-MEL-5 melanoma): 21.1 µM
GI50 (SK-OV-3 ovarian): 36.2 µM
TGI (SK-OV-3 ovarian): > 100 µM
GI50 (SN12C renal): 33.5 µM
TGI (SN12C renal): > 100 µM
GI50 (SNB-19 CNS): 33.9 µM
TGI (SNB-19 CNS): > 100 µM
GI50 (SNB-75 CNS): 19.1 µM
TGI (SNB-75 CNS): 63.1 µM
GI50 (SR leukemia): 31.6 µM
TGI (SR leukemia): 83.5 µM
GI50 (SW-620 colon): 25.8 µM
TGI (SW-620 colon): 72.4 µM
GI50 (T-47D breast): 5.24 µM
TGI (T-47D breast): 27.8 µM
GI50 (TK-10 renal): 41 µM
TGI (TK-10 renal): > 100 µM
GI50 (U251 CNS): 25.2 µM
TGI (U251 CNS): > 100 µM
GI50 (UACC-257 melanoma): 18.6 µM
TGI (UACC-257 melanoma): 48 µM
GI50 (UACC-62 melanoma): 11.8 µM
TGI (UACC-62 melanoma): 27.9 µM
GI50 (UO-31 renal): 21.4 µM
TGI (UO-31 renal): 55.6 µM
